{"source": "patent US20150250826A1", "about": "“ISOLATION AND CHARACTERIZATION OF MUSCLE REGENERATING CELLS” (Joslin Diabetes Center, Inc., priority 2012, published 2015)", "assay_type_in_all_cases": "cell-based", "key": {"[1]": {"system": "mouse Kras; p16p19null sarcoma line", "assay": "In vitro growth assay (MTT) in mouse Kras; p16p19null sarcoma line", "conditions": "96 hours", "excerpt": "(§1) FIG. 8: In vitro screening of candidate targets. Sarcoma cells were exposed to increasing concentrations of Torin (10, 50, 250 nMol), Rapamycin (10, 50, 100 nMol), RL0061425 (10, 50, 100, 500, 1000 nMol), SB525334 (1, 10, 50, 100, 500 nMol), SD208 (10, 50, 100, 500, 1000 nMol), and Ethanol and DMSO (as a control).\n(§2) To begin to evaluate the effects of candidate target genes in sarcoma cells, we have established in vitro assays in which the proliferation of sarcoma cell lines exposed to selected chemical compounds is measured by MTT (3-(4,5-Dimethylthiazol-2-yl)-2,5-diphenyltretrazolium bromide) assay at defined time points. All experiments are carried out in low-passage cell lines established from modeled Kras rhabdomyosarcomas of satellite cell origin. For comparison, we also studied the effects of these compounds in the human embryonal rhabdomyosarcoma cell line RD. In these studies, we focused first on a small set of readily available chemical compounds (obtained from D. Guertin and L. Rubin at the University of Massachusetts and the Harvard Stem Cell Institute, respectively), whose targets include the TGFβ and mammalian target of rapamycin (mTOR) signaling pathways. As discussed above, the TGFβ pathway was implicated in sarcoma pathogenesis by our prior bioinformatics analyses. mTOR was tested as well because Ras pathway activation has been reported to promote mTOR signaling (Carriere, A., Romeo, Y., Acosta-Jaquez, H. A., Moreau, J., Bonneil, E., Thibault, P. Fingar, D. C., Roux, P. P., ERK1/2 Phosphorylate Raptor to Promote Ras-dependent Activation of mTOR Complex 1 (mTORC1). J Biol Chem 286 (1), 567 (2011)), and many genes on our list appear to interact with this signaling pathway (data not shown). Finally, gene ontology analyses of the 146 sarcoma-associated genes discussed above identified 61 genes that function in cell growth and proliferation (i.e., key cellular activities often regulated by mTOR).\n(§3) Cell lines from the modeled sarcomas were exposed to graded concentrations of mTOR inhibitors (Rapamycin, Torin) or TGF inhibitors (RL0061425, SB525334, SD208). […]"}, "[2]": {"system": "human rhabdomyosarcoma cell line RD", "assay": "In vitro growth assay (MTT) in human rhabdomyosarcoma cell line RD", "conditions": "96 hours", "excerpt": "as §1\nTo begin to evaluate the effects of candidate target genes in sarcoma cells, we have established in vitro assays in which the proliferation of sarcoma cell lines exposed to selected chemical compounds is measured by MTT (3-(4,5-Dimethylthiazol-2-yl)-2,5-diphenyltretrazolium bromide) assay at defined time points. All experiments are carried out in low-passage cell lines established from modeled Kras rhabdomyosarcomas of satellite cell origin. For comparison, we also studied the effects of these compounds in the human embryonal rhabdomyosarcoma cell line RD. In these studies, we focused first on a small set of readily available chemical compounds (obtained from D. Guertin and L. Rubin at the University of Massachusetts and the Harvard Stem Cell Institute, respectively), whose targets include the TGFβ and mammalian target of rapamycin (mTOR) signaling pathways. […]"}, "[3]": {"system": "mouse Kras; p16p19null rhabdomyosarcoma cell line", "assay": "In vitro growth assay (MTT) in mouse Kras; p16p19null rhabdomyosarcoma cell line", "conditions": "48 hours", "excerpt": "as §1, §2, §3"}, "[4]": {"conditions": "tested at 10, 50, 100, 500, 1000 nMol"}}}
{"compound": "Cc1cccc(-c2[nH]c(C(C)(C)C)nc2-c2ccc3nccnc3c2)n1", "note": "[SB525334]", "values": [{"measurement": "cell growth (fold-increase in MTT-uptake)", "setting": "[1]; 1, 10, 50, 100, 500 nMol", "result": "no major effect"}, {"measurement": "cell growth (fold-increase in MTT-uptake)", "setting": "[2]; 1, 10, 50, 100, 500 nMol", "result": "no major effect"}, {"measurement": "cell growth (fold-increase in MTT-uptake)", "setting": "[3]; 1, 10, 50, 100, 500 nMol", "result": "no major effect"}]}
{"compound": "Fc1ccc(Cl)cc1-c1nc(Nc2ccncc2)c2nccnc2n1", "note": "[SD208]", "values": [{"measurement": "concentration at which growth was inhibited (MTT-uptake)", "setting": "[1]; [4]", "result": "≥ 500", "unit": "nmol"}, {"measurement": "concentration at which growth was inhibited (MTT-uptake)", "setting": "[3]; [4]", "result": "≥ 500", "unit": "nmol"}]}
{"compound": "Torin", "values": [{"measurement": "cell growth (fold-increase in MTT-uptake)", "setting": "[1]; 250 nMol", "result": "reduced the growth"}, {"measurement": "cell growth (fold-increase in MTT-uptake)", "setting": "[2]; 250 nMol", "result": "reduced the growth"}, {"measurement": "cell growth (fold-increase in MTT-uptake)", "setting": "[3]; 250 nMol", "result": "reduced the growth"}]}
